How the values were obtained:
SK-BR-3 cells = test: In vitro cell viability assay (CellTiter Blue) in SK-BR-3 cells; assay type: cell-based; conditions: Trastuzumab-MMAE conjugates
Description: SK-BR-3 cells were seeded in 96 well black clear-bottom plates at 10K cells/well and cultured for 24 hours. Cells were treated for 96 hours with 2 fold serially diluted antibody-drug conjugates in triplicates. Cells viability was determined by […]™ Blue Cell Viability Assay (Promega, Madison, Wis.). Relative cell viability was determined as a percentage of untreated control. IC50 was calculated using a four parameter logistic model from XLfit.

BT474 cells = test: BT474 cell-based assay; conditions: Trastuzumab-MMAE conjugates, Table 4
[1] = In vivo stability in blood of NCI N87 xenograft mice (sandwich ELISA, ratio ADC/mAb); conditions: blood samples up to 21 days
Description: After ADC administration, blood samples of 20 μl were taken every 1-2 days up to 21 days by poking mouse tails and mixed with 120 μl of storage buffer (PBS with 10 mM EDTA and 0.1 M NH4Cl). Then total trastuzumab and ADC were analyzed by sandwich ELISA. Black NUNC® Maxisorp 96 plates were coated with Her2 protein at 100 ng/well. Samples were further diluted with PBS as needed to suit the linear detection range of 10 pg to 2 ng (for either Trastuzumab or ADC). After applying samples (fresh ADC dilutions were used as both total mAb and ADC standards) and washing, rabbit polyclonal anti-trastuzumab (for total mAb) or anti-MMAE (for total ADC) were applied as secondary antibodies while Goat anti-Rabbit IgG-HRP (Life-technologies) was used as the detection antibody. AMPLEX® Red (Cayman Chemical)/4-Iodophenol (Sigma)/H2O2 mixture was used as fluorescence substrate. Plates were read on SpectraMax GEMINI′ with 555 nm Ex and 585 nm Em.

IgG1 = IgG1 (Homo sapiens, UniProt P01857, D239E/L241M); test: mTgase-catalysed conjugation of IgG1 with MDC (HPLC); assay type: biochemical; conditions: high enzyme concentration
Description: MDC was chosen for this experiment because it has a primary amine and its fluorescence can be easily monitored. […] To purified IgG1 (1-10 mg/ml) in Tris-buffer (pH 6.5-8.5), add MDC (Sigma-Aldrich) in DMSO to final concentrations of 1-5 mM (final DMSO 2-10%). Add purified wildtype TG_SL or its mutant to a final concentration of 0.05-1.0 mg/ml. Incubate the reaction mixtures at 37° C. Reaction was followed by HPLC using phenyl hydrophobic interaction column (PHIC, Tosoh Bioscience LLC). At the beginning of the reaction, the product was dominated by DAR1, where only one heavy chain of IgG1 was coupled with MDC. As the reaction progressed, DAR 2, where both heavy chains of IgG1 are coupled with MDC, became the major product. Toward the end of reaction (8 hours at 0.2 mg/ml of mTgase at pH 7), conjugation yield reached 80% for DAR2 with 20% of DAR 1 left, or 90% for heavy chain (HC) when the sample was reduced by 10 mM TCEP and analyzed on C4-1000A column (Vydac) (see FIG. 6). The selective conjugation of MDC to HC was visualized on SDS PAGE (FIG. 7). Other mTgases, such as TG_SM from S. mobaraensis (purified from Ajinomoto's Activa TI), was also tested.

IgG1, sequence (P01857 with tags, fused parts or gaps isoform P01857-1 D239E/L241M, other chains not shown): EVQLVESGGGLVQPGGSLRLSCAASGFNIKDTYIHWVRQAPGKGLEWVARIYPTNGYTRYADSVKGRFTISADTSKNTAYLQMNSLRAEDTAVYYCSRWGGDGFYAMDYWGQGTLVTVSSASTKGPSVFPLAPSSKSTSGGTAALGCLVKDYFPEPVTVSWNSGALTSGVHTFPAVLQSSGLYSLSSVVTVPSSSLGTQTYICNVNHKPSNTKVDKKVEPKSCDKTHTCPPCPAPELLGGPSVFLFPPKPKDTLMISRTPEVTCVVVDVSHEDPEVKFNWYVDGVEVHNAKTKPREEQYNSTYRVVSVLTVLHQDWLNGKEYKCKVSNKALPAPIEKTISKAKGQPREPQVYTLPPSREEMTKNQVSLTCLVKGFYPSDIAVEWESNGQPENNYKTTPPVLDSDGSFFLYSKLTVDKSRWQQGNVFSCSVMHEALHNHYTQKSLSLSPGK

Row | Molecule | IC50 (SK-BR-3 cells) | IC50 (BT474 cells) | stability in blood (ratio of ADC/mAb vs time) [1] | activity comparing to TG_SL (IgG1)
1 | PEG8 | 0.042 nM | 0.23 nM | – | –
2 | PEG4 | 0.061 nM | 0.273 nM | – | –
3 | PEG6 | 0.05 nM | 0.234 nM | – | –
4 | PEG12 | 0.038 nM | 0.267 nM | completely stable in blood | –
5 | TG_SM: mTgase from S. mobaraensis, purified from Ajinomoto's Activa TI (SEQ ID NO:18) (protein) DSDDRVTPPAEPLDRMPDPYRPSYGRAETVVNNYIRKWQQVYSHRDGRKQQMTEEQREWLSYGCVGVTWVNSGQYPTNRLAFASFDEDRFKNELKNGRPRSGETRAEFEGRVAKESFDEEKGFQRAREVASVMNRALENAHDESAYLDNLKKELANGNDALRNEDARSPFYSALRNTPSFKERNGGNHDPSRMKAVIYSKHFWSGQDRSSSADKRKYGDPDAFRPAPGTGLVDMSRDRNIPRSPTSPGEGFVNFDYGWFGAQTEADADKTVWTHGNHYHAPNGSLGAMHVYESKFRNWSEGYSDFDRGAYVITFIPKSWNTAPDKVKQGWP | – | – | – | about 30%

Source: patent US11285128B2, “Homogenous antibody drug conjugates via enzymatic methods” (CSPC Megalith Biopharmaceutical Co., Ltd., priority 2014, dated 2022)
